Measured values as given in patent US6914045B2, “Glycopeptide antibiotics” (Wyeth Holdings Corporation, priority 2001, dated 2005).
Values after ≈ are worked out from the molar mass of the structure shown.

How the values were obtained:
Assay in all cases: in vitro antibacterial evaluation, MIC by broth dilution
Assay type in all cases: cell-based
Streptococcus sp. = details: broth dilution, 18 hours at 35° C.; for MIC Streptococcus pneumoniae (ATCC 6301): strain ATCC 6301; for MIC Streptococcus pneumoniae (GC 1894): strain GC 1894; for MIC Streptococcus pyogenes (GC 4563): strain GC 4563; for MIC Streptococcus agalactiae (GC 4564): strain GC 4564; for MIC Streptococcus pneumoniae (GC 4565): strain GC 4565
In short: (§1)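 MIC = lowest antibiotic concentration preventing visible growth; inoculum 5×10^5 CFU/mL; drug range 64-0.06 μg/mL; Muller-Hinton II […]; NCCLS M7-A2 guidance.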

Staphylococcus sp. = details: broth dilution, 18 hours at 35° C.; for MIC Staphylococcus aureus (GC 1131): strain GC 1131
In short: as §1

Enterococcus sp. = details: broth dilution, 18 hours at 35° C.; for MIC Enterococcus faecalis (ATCC 29212): strain ATCC 29212; for MIC Enterococcus faecalis (GC 2242): strain GC 2242; for MIC Enterococcus faecium (GC 2243): strain GC 2243; for MIC Enterococcus faecalis (GC 2691): strain GC 2691; for MIC Enterococcus faecalis (GC 3059): strain GC 3059; for MIC Enterococcus faecalis (GC 4552): strain GC 4552; for MIC Enterococcus faecalis (GC 4553): strain GC 4553; for MIC Enterococcus faecalis (GC 4554): strain GC 4554; for MIC Enterococcus faecium (GC 4556): strain GC 4556; for MIC Enterococcus faecium (GC 4557): strain GC 4557; for MIC Enterococcus avium (GC 4558): strain GC 4558; for MIC Enterococcus faecalis (GC 6189): strain GC 6189
In short: as §1

Escherichia coli = tested on: Escherichia coli
In short: as §1

MIC Streptococcus pneumoniae (ATCC 6301) (Streptococcus sp.; inoculum 5×10^5 CFU/mL): <0.06 µg/mL
MIC Streptococcus pneumoniae (GC 1894) (Streptococcus sp.; inoculum 5×10^5 CFU/mL): <0.06 µg/mL
MIC Streptococcus pyogenes (GC 4563) (Streptococcus sp.; inoculum 5×10^5 CFU/mL): 0.12 µg/mL (≈ 0.0808 µM)
MIC Streptococcus agalactiae (GC 4564) (Streptococcus sp.; inoculum 5×10^5 CFU/mL): <0.06 µg/mL
MIC Streptococcus pneumoniae (GC 4565) (Streptococcus sp.; inoculum 5×10^5 CFU/mL): <0.06 µg/mL
MIC Streptococcus pneumoniae (ATCC 6301) (Streptococcus sp.): <0.06 µg/mL
MIC Streptococcus pneumoniae (GC 1894) (Streptococcus sp.): <0.06 µg/mL
MIC Streptococcus pyogenes (GC 4563) (Streptococcus sp.): 0.12 µg/mL (≈ 0.0808 µM)
MIC Streptococcus agalactiae (GC 4564) (Streptococcus sp.): <0.06 µg/mL
MIC Streptococcus pneumoniae (GC 4565) (Streptococcus sp.): <0.06 µg/mL
MIC Staphylococcus aureus (GC 1131) (Staphylococcus sp.; inoculum 5×10^5 CFU/mL): 8 µg/mL (≈ 5.39 µM)
MIC Staphylococcus aureus (ATCC 29213) (Staphylococcus sp.; strain ATCC 29213): 4 µg/mL (≈ 2.69 µM)
MIC Staphylococcus aureus (GC 1131) (Staphylococcus sp.): 8 µg/mL (≈ 5.39 µM)
MIC Staphylococcus aureus (GC 3051) (Staphylococcus sp.; strain GC 3051): 4 µg/mL (≈ 2.69 µM)
MIC Staphylococcus aureus (GC 3053) (Staphylococcus sp.; strain GC 3053): 4 µg/mL (≈ 2.69 µM)
MIC Staphylococcus aureus (GC 4541) (Staphylococcus sp.; strain GC 4541): 4 µg/mL (≈ 2.69 µM)
MIC Staphylococcus aureus (GC 4542) (Staphylococcus sp.; strain GC 4542): 2 µg/mL (≈ 1.35 µM)
MIC Staphylococcus aureus-SMITH (GC 4543) (Staphylococcus sp.; strain GC 4543): 8 µg/mL (≈ 5.39 µM)
MIC Staphylococcus aureus (GC 4544) (Staphylococcus sp.; strain GC 4544): 8 µg/mL (≈ 5.39 µM)
MIC Staphylococcus aureus (GC 4545) (Staphylococcus sp.; strain GC 4545): 4 µg/mL (≈ 2.69 µM)
MIC Coagulase Negative Staphylococcus (GC 4547) (Staphylococcus sp.; strain GC 4547): 8 µg/mL (≈ 5.39 µM)
MIC Coagulase Negative Staphylococcus (GC 4548) (Staphylococcus sp.; strain GC 4548): 2 µg/mL (≈ 1.35 µM)
MIC Coagulase Negative Staphylococcus (GC 4549) (Staphylococcus sp.; strain GC 4549): 2 µg/mL (≈ 1.35 µM)
MIC Coagulase Negative Staphylococcus (GC 4551) (Staphylococcus sp.; strain GC 4551): 4 µg/mL (≈ 2.69 µM)
MIC Coagulase Negative Staphylococcus (GC 6257) (Staphylococcus sp.; strain GC 6257): 2 µg/mL (≈ 1.35 µM)
MIC Enterococcus faecalis (ATCC 29212) (Enterococcus sp.; inoculum 5×10^5 CFU/mL): 8 µg/mL (≈ 5.39 µM)
MIC Enterococcus faecalis (GC 2242) (Enterococcus sp.; inoculum 5×10^5 CFU/mL): 4 µg/mL (≈ 2.69 µM)
MIC Enterococcus faecium (GC 2243) (Enterococcus sp.; inoculum 5×10^5 CFU/mL): 8 µg/mL (≈ 5.39 µM)
MIC Enterococcus faecalis (GC 2691) (Enterococcus sp.; inoculum 5×10^5 CFU/mL): 4 µg/mL (≈ 2.69 µM)
MIC Enterococcus faecalis (GC 3059) (Enterococcus sp.; inoculum 5×10^5 CFU/mL): 8 µg/mL (≈ 5.39 µM)
MIC Enterococcus faecalis (GC 4552) (Enterococcus sp.; inoculum 5×10^5 CFU/mL): 8 µg/mL (≈ 5.39 µM)
MIC Enterococcus faecalis (GC 4553) (Enterococcus sp.; inoculum 5×10^5 CFU/mL): 4 µg/mL (≈ 2.69 µM)
MIC Enterococcus faecalis (GC 4554) (Enterococcus sp.; inoculum 5×10^5 CFU/mL): 4 µg/mL (≈ 2.69 µM)
MIC Enterococcus faecium (GC 4556) (Enterococcus sp.; inoculum 5×10^5 CFU/mL): 8 µg/mL (≈ 5.39 µM)
MIC Enterococcus faecium (GC 4557) (Enterococcus sp.; inoculum 5×10^5 CFU/mL): 8 µg/mL (≈ 5.39 µM)
MIC Enterococcus avium (GC 4558) (Enterococcus sp.; inoculum 5×10^5 CFU/mL): 4 µg/mL (≈ 2.69 µM)
MIC Enterococcus faecalis (GC 6189) (Enterococcus sp.; inoculum 5×10^5 CFU/mL): 2 µg/mL (≈ 1.35 µM)
MIC Enterococcus faecalis (ATCC 29212) (Enterococcus sp.): 8 µg/mL (≈ 5.39 µM)
MIC Enterococcus faecalis (GC 2242) (Enterococcus sp.): 4 µg/mL (≈ 2.69 µM)
MIC Enterococcus faecium (GC 2243) (Enterococcus sp.): 8 µg/mL (≈ 5.39 µM)
MIC Enterococcus faecalis (GC 2691) (Enterococcus sp.): 4 µg/mL (≈ 2.69 µM)
MIC Enterococcus faecalis (GC 3059) (Enterococcus sp.): 8 µg/mL (≈ 5.39 µM)
MIC Enterococcus faecalis (GC 4552) (Enterococcus sp.): 8 µg/mL (≈ 5.39 µM)
MIC Enterococcus faecalis (GC 4553) (Enterococcus sp.): 4 µg/mL (≈ 2.69 µM)
MIC Enterococcus faecalis (GC 4554) (Enterococcus sp.): 4 µg/mL (≈ 2.69 µM)
MIC Enterococcus faecium (GC 4556) (Enterococcus sp.): 8 µg/mL (≈ 5.39 µM)
MIC Enterococcus faecium (GC 4557) (Enterococcus sp.): 8 µg/mL (≈ 5.39 µM)
MIC Enterococcus avium (GC 4558) (Enterococcus sp.): 4 µg/mL (≈ 2.69 µM)
MIC Enterococcus faecalis (GC 6189) (Enterococcus sp.): 2 µg/mL (≈ 1.35 µM)
MIC Escherichia coli (ATCC 25922) (Escherichia coli; strain ATCC 25922, 18 hours at 35° C.): >64 µg/mL
MIC Escherichia coli (GC 4559) (Escherichia coli; strain GC 4559, 18 hours at 35° C.): >64 µg/mL
MIC Escherichia coli (GC 4560) (Escherichia coli; strain GC 4560, 18 hours at 35° C.): 2 µg/mL (≈ 1.35 µM)
Structure (SMILES): CC(c1ccccc1)C1NC(=O)CNC(=O)C(CO)NC(=O)C(C(O)C2CNC(=N)N2C2OC(CO)C(O)C(O)C2O)NC(=O)C(C(O)C2CNC(=N)N2)NC(=O)C(Cc2ccc(OC3OC(CO)C(OC4OC5COC(c6ccc(C=Cc7ccccc7)cc6)OC5C(O)C4O)C(O)C3O)cc2)NC1=O (centres unmarked) [Example 172]
MIC Staphylococcus haemolyticus (GC 4546) (Staphylococcus sp.; strain GC 4546): 8 µg/mL (≈ 5.39 µM)
